# Literature values, collected in patent US5246706A, “Device for administering bimakalim transdermally” (Cygnus Therapeutic Systems, priority 1991, dated 1993).
# Tests used:
# potassium channel = details: background statement
# [1] = octanol/phosphate buffer, pH 7.4; known
# [2] = known
partition coefficient [1],water solubility [2],SMILES,potassium channel activating properties (potassium channel)
–,–,"CC1(C)Oc2ccc(C#N)cc2[C@@H](n2ccccc2=O)[C@@H]1O (single isomer, unassigned) [(-)-trans-3,4-dihydro-4-(1,2-dihydro-2-oxo-1-pyridyl)-3-hydroxy-2,2-dimethyl-2H-1-benzopyran-6-carbonitrile]",exhibits potassium channel activating properties
27.0,approximately 0.7 mg/ml,"CC1(C)C=C(n2ccccc2=O)c2cc(C#N)ccc2O1 [Bimakalim, 4-(1,2-dihydro-2-oxo-1-pyridyl)-2,2-dimethyl-2H-1-benzopyran-6-carbonitrile]",potassium channel activating drug
